These results are taken from patent publication US11427548B2 (Arvinas Operations, Inc., priority 2015, dated 2022).

By DC50 is commonly meant the concentration at which degradation of the target reaches its halfway point. For orientation: Dmax means the largest share of the target that was removed.

This assay addresses T1, Androgen Receptor (Homo sapiens, UniProt P10275).
T1 construct: endogenous in cells; host or cells: VCaP cells
T1 sequence (P10275 1-920): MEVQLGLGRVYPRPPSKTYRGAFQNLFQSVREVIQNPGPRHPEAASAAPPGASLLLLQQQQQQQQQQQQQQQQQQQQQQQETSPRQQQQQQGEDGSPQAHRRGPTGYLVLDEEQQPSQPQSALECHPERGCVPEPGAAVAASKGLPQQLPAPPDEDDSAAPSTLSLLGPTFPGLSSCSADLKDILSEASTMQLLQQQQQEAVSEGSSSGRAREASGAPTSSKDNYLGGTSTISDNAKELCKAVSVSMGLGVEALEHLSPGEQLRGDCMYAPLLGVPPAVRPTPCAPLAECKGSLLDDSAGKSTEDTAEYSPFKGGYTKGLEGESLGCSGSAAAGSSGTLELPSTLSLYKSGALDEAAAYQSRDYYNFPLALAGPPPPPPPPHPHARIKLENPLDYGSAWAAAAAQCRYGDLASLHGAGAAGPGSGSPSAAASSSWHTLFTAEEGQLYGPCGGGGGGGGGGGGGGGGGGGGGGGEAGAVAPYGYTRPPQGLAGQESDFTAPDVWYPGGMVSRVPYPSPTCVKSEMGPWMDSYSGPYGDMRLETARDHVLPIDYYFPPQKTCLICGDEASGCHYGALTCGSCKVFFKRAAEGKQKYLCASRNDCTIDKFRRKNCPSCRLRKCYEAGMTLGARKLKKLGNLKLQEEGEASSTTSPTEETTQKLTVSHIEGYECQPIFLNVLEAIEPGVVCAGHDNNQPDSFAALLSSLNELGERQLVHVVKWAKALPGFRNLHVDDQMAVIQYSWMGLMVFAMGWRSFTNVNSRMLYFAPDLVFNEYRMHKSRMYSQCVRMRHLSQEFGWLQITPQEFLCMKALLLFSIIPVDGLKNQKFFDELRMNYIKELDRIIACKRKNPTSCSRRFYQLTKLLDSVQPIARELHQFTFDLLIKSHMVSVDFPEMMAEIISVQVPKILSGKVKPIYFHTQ
Kind of assay: Androgen Receptor ELISA assay (PathScan AR ELISA) in VCaP cells: AR degradation, Dmax and DC50. Type of assay: cell-based. The settings on record: for DC50: read-out: VCaP DC50; for Dmax: VCaP, read-out: VCaP Dmax (%). A digest of the protocol:
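VCaP cells in phenol red-free RPMI with 5% charcoal-stripped FBS were grown at least 3 days, then given compound as 7 half-log doses in 0.1% DMSO with 0.1 nM R1881 for 24 h. Lysates went into a sandwich AR ELISA with TMB read at 450 nm.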

Like-named read-outs stand apart in the source and are kept apart here.

Turning to `Cc1ncsc1-c1ccc([C@H](C)NC(=O)[C@@H]2C[C@@H](O)CN2C(=O)[C@@H](NC(=O)COC2CC(N3CCN(c4ccc(C(=O)NC5C(C)(C)C(Oc6ccc(C#N)c(Cl)c6)C5(C)C)cn4)CC3)C2)C(C)(C)C)cc1` (stereo partly drawn) [Example 846, N-((1r,3R)-3-(3-chloro-4-cyanophenoxy)-2,2,4,4-tetramethylcyclobutyl)-6-(4-((1S,3R)-3-(2-(((S)-1-((2S,4R)-4-hydroxy-2-(((S)-1-(4-(4-methylthiazol-5-yl)phenyl)ethyl)carbamoyl)pyrrolidin-1-yl)-3,3-dimethyl-1-oxobutan-2-yl)amino)-2-oxoethoxy)cyclobutyl)piperazin-1-yl)nicotinamide], for the setting “VCaP cells, Table 36”, the DC50 is under 50 nM and the Dmax is over 71%.

Turning to `Cc1ncsc1-c1ccc([C@H](CO)NC(=O)[C@@H]2C[C@@H](O)CN2C(=O)[C@@H](NC(=O)CN2CCC(CN3CCN(c4ccc(C(=O)N[C@H]5C(C)(C)[C@H](Oc6ccc(C#N)c(Cl)c6)C5(C)C)cn4)CC3)CC2)C(C)(C)C)cc1` [Example 847, N-((1r,3r)-3-(3-chloro-4-cyanophenoxy)-2,2,4,4-tetramethylcyclobutyl)-6-(4-((1-(2-(((S)-1-((2S,4R)-4-hydroxy-2-(((R)-2-hydroxy-1-(4-(4-methylthiazol-5-yl)phenyl)ethyl)carbamoyl)pyrrolidin-1-yl)-3,3-dimethyl-1-oxobutan-2-yl)amino)-2-oxoethyl)piperidin-4-yl)methyl)piperazin-1-yl)nicotinamide], the Dmax is over 71%. The DC50 (VCaP cells, Table 36) was under 50 nM.

In the case of `Cc1ncsc1-c1ccc([C@H](C)NC(=O)[C@@H]2CC(O)CN2C(=O)[C@H](C(C)C)N2Cc3cc(OCCN4CCN(c5ccc(C(=O)N[C@H]6C(C)(C)[C@H](Oc7ccc(C#N)c(Cl)c7)C6(C)C)cn5)CC4)ccc3C2=O)cc1` (stereo partly drawn) [Example 848, N-((1r,3r)-3-(3-chloro-4-cyanophenoxy)-2,2,4,4-tetramethylcyclobutyl)-6-(4-(2-((2-((S)-1-((2S, 4R)-4-hydroxy-2-(((S)-1-(4-(4-methylthiazol-5-yl)phenyl)ethyl)carbamoyl)pyrrolidin-1-yl)-3-methyl-1-oxobutan-2-yl)-1-oxoisoindolin-5-yl)oxy)ethyl)piperazin-1-yl)nicotinamide], under “VCaP cells, Table 36”, the DC50 is under 50 nM and the Dmax was over 71%.

For the molecule `Cc1ncsc1-c1ccc([C@H](C)NC(=O)[C@@H]2C[C@@H](O)CN2C(=O)[C@@H](NC(=O)COCCN2CCN(c3ccc(C(=O)N[C@H]4CC(Oc5ccc(C#N)c(Cl)c5)C4(C)C)cn3)CC2)C(C)(C)C)cc1` (stereo partly drawn) [Example 849, N-((1S)-3-(3-chloro-4-cyanophenoxy)-2,2-dimethylcyclobutyl)-6-(4-(2-(2-(((S)-1-((2S, 4R)-4-hydroxy-2-(((S)-1-(4-(4-methylthiazol-5-yl)phenyl)ethyl)carbamoyl)pyrrolidin-1-yl)-3,3-dimethyl-1-oxobutan-2-yl)amino)-2-oxoethoxy)ethyl)piperazin-1-yl)nicotinamide], for the setting “VCaP cells, Table 36”, the DC50 was under 50 nM and the Dmax was 51 to 70%.

In the case of `Cc1ncsc1-c1ccc([C@H](C)NC(=O)[C@@H]2C[C@@H](O)CN2C(=O)[C@@H](NC(=O)COCCN2CCN(c3ccc(C(=O)N[C@H]4C[C@@H](Oc5ccc(C#N)c(Cl)c5)C4(C)C)cn3)CC2)C(C)(C)C)cc1` [Example 850, N-((1S,3R)-3-(3-chloro-4-cyanophenoxy)-2,2-dimethylcyclobutyl)-6-(4-(2-(2-(((S)-1-((2S, 4R)-4-hydroxy-2-(((S)-1-(4-(4-methylthiazol-5-yl)phenyl)ethyl)carbamoyl)pyrrolidin-1-yl)-3,3-dimethyl-1-oxobutan-2-yl)amino)-2-oxoethoxy)ethyl)piperazin-1-yl) nicotinamide], under “VCaP cells, Table 36”, the DC50 is under 50 nM and the Dmax fell in the range of 51 to 70%.

In the case of `Cc1ncsc1-c1ccc([C@H](C)NC(=O)[C@@H]2C[C@@H](O)CN2C(=O)[C@@H](NC(=O)CC2(CN3CCN(c4ccc(C(=O)N[C@H]5C(C)(C)[C@H](Oc6ccc(C#N)c(Cl)c6)C5(C)C)cn4)CC3)COC2)C(C)(C)C)cc1` [Example 851, N-((1r,3r)-3-(3-chloro-4-cyanophenoxy)-2,2,4,4-tetramethylcyclobutyl)-6-(4-((3-(2-(((S)-1-((2S,4R)-4-hydroxy-2-(((S)-1-(4-(4-methylthiazol-5-yl)phenyl)ethyl)carbamoyl)pyrrolidin-1-yl)-3,3-dimethyl-1-oxobutan-2-yl)amino)-2-oxoethyl)oxetan-3-yl)methyl)piperazin-1-yl)nicotinamide], under “VCaP cells, Table 36”, the DC50 is under 50 nM and the Dmax was in the range of 26 to 50%.

For `CC(=O)O[C@@H]1C[C@@H](C(=O)N[C@@H](C)c2ccc(-c3scnc3C)cc2)N(C(=O)[C@H](C(C)C)N2Cc3cc(OCCN4CCN(c5ccc(C(=O)N[C@H]6C(C)(C)[C@H](Oc7ccc(C#N)c(Cl)c7)C6(C)C)cn5)CC4)ccc3C2=O)C1` [Example 852, (3R,5S)-1-((S)-2-(5-(2-(4-(5-(((1r,3r)-3-(3-chloro-4-cyanophenoxy)-2,2,4,4-tetramethylcyclobutyl)carbamoyl)pyridin-2-yl)piperazin-1-yl)ethoxy)-1-oxoisoindolin-2-yl)-3-methylbutanoyl)-5-(((S)-1-(4-(4-methylthiazol-5-yl)phenyl)ethyl)carbamoyl)pyrrolidin-3-yl acetate], the greatest degradation seen (Dmax) was in the range of 51 to 70%. Further, the DC50 (VCaP cells, Table 36) is under 50 nM.

On to `Cc1ncsc1-c1ccc([C@H](C)NC(=O)[C@@H]2C[C@@H](O)CN2C(=O)[C@@H](NC(=O)CN2CCN(CC3CCN(c4ccc(C(=O)N[C@H]5C(C)(C)[C@H](Oc6ccc(C#N)c(Cl)c6)C5(C)C)cn4)CC3)CC2)C(C)(C)C)cc1` [Example 853, N-((1r,3r)-3-(3-chloro-4-cyanophenoxy)-2,2,4,4-tetramethylcyclobutyl)-6-(4-((4-(2-(((S)-1-((2S,4R)-4-hydroxy-2-(((S)-1-(4-(4-methylthiazol-5-yl)phenyl)ethyl)carbamoyl)pyrrolidin-1-yl)-3,3-dimethyl-1-oxobutan-2-yl)amino)-2-oxoethyl)piperazin-1-yl)methyl)piperidin-1-yl) nicotinamide], for which the maximal degradation (Dmax) was over 71%. Also, the DC50 (VCaP cells, Table 36) is under 50 nM.

On to `Cc1ncsc1-c1ccc([C@H](CO)NC(=O)[C@@H]2C[C@@H](O)CN2C(=O)[C@@H](NC(=O)CN2CCN(CC3CCN(c4ccc(C(=O)N[C@H]5C(C)(C)[C@H](Oc6ccc(C#N)c(Cl)c6)C5(C)C)cn4)CC3)CC2)C(C)(C)C)cc1` [Example 854, N-((1r,3r)-3-(3-chloro-4-cyanophenoxy)-2,2,4,4-tetramethylcyclobutyl)-6-(4-((4-(2-(((S)-1-((2S,4R)-4-hydroxy-2-(((R)-2-hydroxy-1-(4-(4-methylthiazol-5-yl)phenyl)ethyl)carbamoyl)pyrrolidin-1-yl)-3,3-dimethyl-1-oxobutan-2-yl)amino)-2-oxoethyl)piperazin-1-yl)methyl)piperidin-1-yl)nicotinamide], for which the maximal degradation (Dmax) is over 71%. For the same molecule, where the note is “VCaP cells, Table 36”, the 50% degradation concentration (DC50) is under 50 nM.

As to `Cc1ncsc1-c1ccc([C@H](C)NC(=O)[C@@H]2C[C@@H](O)CN2C(=O)[C@@H](NC(=O)COCCN2CCN(c3ccc(C(=O)N[C@H]4C(C)(C)[C@H](Oc5ccc(C#N)c(C(F)(F)F)c5)C4(C)C)cn3)CC2)C(C)(C)C)cc1` [Example 855, N-((1r,3r)-3-(4-cyano-3-(trifluoromethyl)phenoxyl)-2,2,4,4-tetramethylcyclobutyl)-6-(4-(2-(2-(((S)-1-((2S, 4R)-4-hyrdoxy-2-(((S)-1-(4-(4-methylthiazol-5-yl)phenyl)ethyl)carbamoyl)pyrrolidin-1-yl)-3,3-dimethyl-1-oxobutan-2-yl)amino)-2-oxoethoxy)ethyl)piperazin-1-yl) nicotinamide], where the note is “VCaP cells, Table 36”, the half-maximal degradation concentration (DC50) was under 50 nM and the Dmax is over 71%.

`Cc1ncsc1-c1ccc([C@H](C)NC(=O)[C@@H]2CC(O)CN2C(=O)[C@H](C(C)C)N2Cc3ccc(OCCN4CCN(c5ccc(C(=O)N[C@H]6C(C)(C)[C@H](Oc7ccc(C#N)c(Cl)c7)C6(C)C)cn5)CC4)cc3C2=O)cc1` (stereo partly drawn) [Example 856, N-((1r,3r)-3-(3-chloro-4-cyanophenoxy)-2,2,4,4-tetramethylcyclobutyl)-6-(4-(2-((2-((S)-1-((2S, 4R)-4-hydroxy-2-(((S)-1-(4-(4-methylthiazol-5-yl)phenyl)ethyl)carbamoyl)pyrrolidin-1-yl)-3-methyl-1-oxobutan-2-yl)-3-oxoisoindolin-5-yl)oxy)ethyl)piperazin-1-yl)nicotinamide]: where the note is “VCaP cells, Table 36”, the DC50 is over 501 nM and the Dmax was under 25%.
